Twelve compounds from patent US12258328B2, “6-membered heteroaryl-containing aminopyridine compounds as EGFR inhibitors” (YUHAN CORPORATION, priority 2021, dated 2025) can be followed below.

Read-outs that look alike come from different tables or passages of the source. Bounds are passed on as bounds.

For assay [1], the target named is EGFR del19/T790M/C797S (Homo sapiens, UniProt P00533, C797S/DEL746-750/T790M). The assay is described as follows: Biochemical EGFR kinase assay (Lance Ultra TR-FRET), triple mutant del19/T790M/C797S. Put shortly: (§1)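 Enzyme reactions lasted 1 hour at room temperature with test compounds between 0.003 and 10 μM, followed by 10 mM EDTA quench.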
Sequence of EGFR del19/T790M/C797S (P00533 with tags, fused parts or gaps DEL746-750/T790M/C797S): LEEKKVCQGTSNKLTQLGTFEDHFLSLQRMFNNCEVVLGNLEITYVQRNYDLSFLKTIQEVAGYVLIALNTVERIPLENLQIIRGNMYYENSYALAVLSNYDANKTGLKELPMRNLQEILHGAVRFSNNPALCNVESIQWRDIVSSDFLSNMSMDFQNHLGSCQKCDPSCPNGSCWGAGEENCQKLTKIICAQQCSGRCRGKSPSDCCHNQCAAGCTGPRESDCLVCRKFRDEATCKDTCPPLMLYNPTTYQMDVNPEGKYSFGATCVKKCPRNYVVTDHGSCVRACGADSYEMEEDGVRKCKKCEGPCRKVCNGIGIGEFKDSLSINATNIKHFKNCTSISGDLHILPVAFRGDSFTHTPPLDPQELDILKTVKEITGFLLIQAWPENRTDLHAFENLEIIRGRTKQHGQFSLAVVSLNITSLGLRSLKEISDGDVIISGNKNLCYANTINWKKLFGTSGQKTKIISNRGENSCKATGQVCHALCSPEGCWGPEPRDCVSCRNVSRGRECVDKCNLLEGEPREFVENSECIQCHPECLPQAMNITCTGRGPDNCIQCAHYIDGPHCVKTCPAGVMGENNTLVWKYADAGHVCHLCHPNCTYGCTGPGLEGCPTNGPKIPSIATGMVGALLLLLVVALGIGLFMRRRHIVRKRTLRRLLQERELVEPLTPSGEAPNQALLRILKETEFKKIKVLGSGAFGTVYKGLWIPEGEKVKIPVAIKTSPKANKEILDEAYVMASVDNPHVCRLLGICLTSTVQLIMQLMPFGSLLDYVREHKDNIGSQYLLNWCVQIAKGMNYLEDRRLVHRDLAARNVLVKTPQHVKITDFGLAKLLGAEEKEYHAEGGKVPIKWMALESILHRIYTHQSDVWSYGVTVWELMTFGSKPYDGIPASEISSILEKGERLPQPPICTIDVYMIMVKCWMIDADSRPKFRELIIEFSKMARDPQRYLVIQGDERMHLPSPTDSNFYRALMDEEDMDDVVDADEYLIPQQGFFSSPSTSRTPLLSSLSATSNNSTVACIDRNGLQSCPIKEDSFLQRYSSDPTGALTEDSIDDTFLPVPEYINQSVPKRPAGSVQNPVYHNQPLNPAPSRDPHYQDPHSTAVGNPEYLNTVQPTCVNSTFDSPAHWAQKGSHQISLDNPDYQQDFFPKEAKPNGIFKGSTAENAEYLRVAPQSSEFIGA
(Time-resolved FRET reads energy transfer from a long-lived donor to a nearby acceptor.)

The target of assay [2] is EGFR L858R/T790M/C797S (Homo sapiens, UniProt P00533, C797S/L858R/T790M). Nature of the assay: Biochemical EGFR kinase assay (Lance Ultra TR-FRET), triple mutant L858R/T790M/C797S. Put shortly:
as §1

For assay [3], the target named is EGFR del19/C797S (Homo sapiens, UniProt P00533, C797S/DEL746-750). The assay is described as follows: Biochemical EGFR kinase assay (Lance Ultra TR-FRET), double mutant del19/C797S. Put shortly: as §1
Sequence of EGFR del19/C797S (P00533 with tags, fused parts or gaps DEL746-750/C797S): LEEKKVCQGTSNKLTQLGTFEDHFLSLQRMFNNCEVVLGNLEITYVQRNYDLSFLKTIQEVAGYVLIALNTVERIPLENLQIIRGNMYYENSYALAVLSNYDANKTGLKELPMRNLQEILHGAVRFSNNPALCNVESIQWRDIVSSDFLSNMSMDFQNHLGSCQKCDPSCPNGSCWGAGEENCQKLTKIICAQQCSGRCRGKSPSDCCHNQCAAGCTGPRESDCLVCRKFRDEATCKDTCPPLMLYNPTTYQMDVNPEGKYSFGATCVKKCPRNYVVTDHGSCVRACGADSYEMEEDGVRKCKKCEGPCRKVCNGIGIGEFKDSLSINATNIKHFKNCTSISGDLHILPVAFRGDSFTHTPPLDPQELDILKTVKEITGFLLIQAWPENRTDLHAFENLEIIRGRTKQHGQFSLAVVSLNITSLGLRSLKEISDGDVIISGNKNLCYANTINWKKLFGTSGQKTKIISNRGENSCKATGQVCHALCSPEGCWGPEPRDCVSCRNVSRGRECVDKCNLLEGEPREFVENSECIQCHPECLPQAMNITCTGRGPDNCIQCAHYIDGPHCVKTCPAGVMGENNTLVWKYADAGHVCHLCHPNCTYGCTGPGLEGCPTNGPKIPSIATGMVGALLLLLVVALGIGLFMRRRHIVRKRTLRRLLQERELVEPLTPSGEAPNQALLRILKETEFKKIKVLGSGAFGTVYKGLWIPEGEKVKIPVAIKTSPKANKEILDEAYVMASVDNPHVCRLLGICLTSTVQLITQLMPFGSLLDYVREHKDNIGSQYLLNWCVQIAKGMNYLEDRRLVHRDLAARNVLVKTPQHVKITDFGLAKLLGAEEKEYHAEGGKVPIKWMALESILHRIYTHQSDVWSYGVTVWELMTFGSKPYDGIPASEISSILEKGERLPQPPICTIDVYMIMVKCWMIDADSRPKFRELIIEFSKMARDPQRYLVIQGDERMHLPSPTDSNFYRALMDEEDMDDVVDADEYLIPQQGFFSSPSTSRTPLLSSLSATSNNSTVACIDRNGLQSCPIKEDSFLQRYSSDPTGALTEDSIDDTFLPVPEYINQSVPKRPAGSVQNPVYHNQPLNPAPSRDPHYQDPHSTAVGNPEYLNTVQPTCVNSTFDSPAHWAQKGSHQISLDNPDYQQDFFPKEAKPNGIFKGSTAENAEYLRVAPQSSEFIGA
Assay [4] concerns the target EGFR L858R/C797S (Homo sapiens, UniProt P00533, C797S/L858R). Nature of the assay: Biochemical EGFR kinase assay (Lance Ultra TR-FRET), double mutant L858R/C797S. Put shortly: as §1
Assay [5] deals with EGFR wildtype (Homo sapiens, UniProt P00533). Nature of the assay: Biochemical EGFR kinase assay (Lance Ultra TR-FRET), wildtype. In short, it runs like this:
as §1

[6] abbreviates: Km ATP, read-out: IC50 del19/T790M/C797S (nM) Km ATP.
Setting [7] is: Km ATP, read-out: IC50 L858R/T790M/C797S (nM) Km ATP.
The mark [8] stands for this setting: Km ATP, read-out: IC50 del19/C797S (nM) Km ATP.
The mark [9] stands for this setting: Km ATP, read-out: IC50 L858R/C797S (nM) Km ATP.
Where [10] appears, read: Km ATP, read-out: IC50 WT (nM) Km ATP.
The mark [11] stands for this setting: IC50 del19/T790M/C797S (nM) 100 μM ATP, 100 μM ATP.
Setting [12] is: IC50 L858R/T790M/C797S (nM) 100 μM ATP, 100 μM ATP.
Where [13] appears, read: IC50 del19/C797S (nM) 100 μM ATP, 100 μM ATP.
[14] abbreviates: IC50 L858R/C797S (nM) 100 μM ATP, 100 μM ATP.
[15] abbreviates: IC50 WT (nM) 100 μM ATP, 100 μM ATP.
[16] abbreviates: IC50 del19/T790M/C797S, 100 μM ATP.
The mark [17] stands for this setting: IC50 L858R/T790M/C797S, 100 μM ATP.
Setting [18] is: ATP at Km, read-out: IC50 del19/T790M/C797S, Km ATP.
Setting [19] is: ATP at Km, read-out: IC50 L858R/T790M/C797S, Km ATP.
Where [20] appears, read: ATP at Km, read-out: IC50 del19/C797S, Km ATP.
Setting [21] is: ATP at Km, read-out: IC50 L858R/C797S, Km ATP.
The mark [22] stands for this setting: ATP at Km, read-out: IC50 WT, Km ATP.

Sequence of EGFR L858R/T790M/C797S (P00533 25-1210 T790M/C797S/L858R): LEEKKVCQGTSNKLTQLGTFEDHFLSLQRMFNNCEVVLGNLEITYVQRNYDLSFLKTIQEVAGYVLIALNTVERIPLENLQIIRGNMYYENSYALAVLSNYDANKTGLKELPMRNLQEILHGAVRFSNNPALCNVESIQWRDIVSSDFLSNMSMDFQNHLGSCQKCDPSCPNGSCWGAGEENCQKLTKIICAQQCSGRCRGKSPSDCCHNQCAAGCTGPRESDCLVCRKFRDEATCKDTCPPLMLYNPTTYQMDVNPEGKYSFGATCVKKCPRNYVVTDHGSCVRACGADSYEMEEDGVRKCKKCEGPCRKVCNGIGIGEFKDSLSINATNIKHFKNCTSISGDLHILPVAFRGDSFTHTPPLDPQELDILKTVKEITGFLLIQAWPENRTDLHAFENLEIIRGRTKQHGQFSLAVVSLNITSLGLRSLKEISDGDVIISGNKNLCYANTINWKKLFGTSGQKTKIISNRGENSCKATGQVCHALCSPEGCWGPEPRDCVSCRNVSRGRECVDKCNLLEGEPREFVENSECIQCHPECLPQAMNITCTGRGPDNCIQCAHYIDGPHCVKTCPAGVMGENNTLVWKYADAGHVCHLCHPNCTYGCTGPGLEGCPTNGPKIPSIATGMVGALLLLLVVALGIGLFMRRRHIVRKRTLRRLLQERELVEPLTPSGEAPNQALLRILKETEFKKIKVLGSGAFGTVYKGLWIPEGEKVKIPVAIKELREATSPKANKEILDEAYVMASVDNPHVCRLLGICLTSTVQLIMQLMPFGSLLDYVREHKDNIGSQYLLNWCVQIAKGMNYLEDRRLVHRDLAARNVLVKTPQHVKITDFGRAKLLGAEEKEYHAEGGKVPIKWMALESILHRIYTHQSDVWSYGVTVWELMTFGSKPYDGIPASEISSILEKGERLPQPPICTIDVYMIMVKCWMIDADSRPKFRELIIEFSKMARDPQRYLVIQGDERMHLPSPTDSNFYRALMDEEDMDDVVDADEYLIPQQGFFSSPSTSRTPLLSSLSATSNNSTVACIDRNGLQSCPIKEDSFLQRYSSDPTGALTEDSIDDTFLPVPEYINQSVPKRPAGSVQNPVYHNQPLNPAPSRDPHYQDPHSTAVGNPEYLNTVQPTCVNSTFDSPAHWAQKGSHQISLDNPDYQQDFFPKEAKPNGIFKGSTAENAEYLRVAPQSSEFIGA
Sequence of EGFR L858R/C797S (P00533 25-1210 C797S/L858R): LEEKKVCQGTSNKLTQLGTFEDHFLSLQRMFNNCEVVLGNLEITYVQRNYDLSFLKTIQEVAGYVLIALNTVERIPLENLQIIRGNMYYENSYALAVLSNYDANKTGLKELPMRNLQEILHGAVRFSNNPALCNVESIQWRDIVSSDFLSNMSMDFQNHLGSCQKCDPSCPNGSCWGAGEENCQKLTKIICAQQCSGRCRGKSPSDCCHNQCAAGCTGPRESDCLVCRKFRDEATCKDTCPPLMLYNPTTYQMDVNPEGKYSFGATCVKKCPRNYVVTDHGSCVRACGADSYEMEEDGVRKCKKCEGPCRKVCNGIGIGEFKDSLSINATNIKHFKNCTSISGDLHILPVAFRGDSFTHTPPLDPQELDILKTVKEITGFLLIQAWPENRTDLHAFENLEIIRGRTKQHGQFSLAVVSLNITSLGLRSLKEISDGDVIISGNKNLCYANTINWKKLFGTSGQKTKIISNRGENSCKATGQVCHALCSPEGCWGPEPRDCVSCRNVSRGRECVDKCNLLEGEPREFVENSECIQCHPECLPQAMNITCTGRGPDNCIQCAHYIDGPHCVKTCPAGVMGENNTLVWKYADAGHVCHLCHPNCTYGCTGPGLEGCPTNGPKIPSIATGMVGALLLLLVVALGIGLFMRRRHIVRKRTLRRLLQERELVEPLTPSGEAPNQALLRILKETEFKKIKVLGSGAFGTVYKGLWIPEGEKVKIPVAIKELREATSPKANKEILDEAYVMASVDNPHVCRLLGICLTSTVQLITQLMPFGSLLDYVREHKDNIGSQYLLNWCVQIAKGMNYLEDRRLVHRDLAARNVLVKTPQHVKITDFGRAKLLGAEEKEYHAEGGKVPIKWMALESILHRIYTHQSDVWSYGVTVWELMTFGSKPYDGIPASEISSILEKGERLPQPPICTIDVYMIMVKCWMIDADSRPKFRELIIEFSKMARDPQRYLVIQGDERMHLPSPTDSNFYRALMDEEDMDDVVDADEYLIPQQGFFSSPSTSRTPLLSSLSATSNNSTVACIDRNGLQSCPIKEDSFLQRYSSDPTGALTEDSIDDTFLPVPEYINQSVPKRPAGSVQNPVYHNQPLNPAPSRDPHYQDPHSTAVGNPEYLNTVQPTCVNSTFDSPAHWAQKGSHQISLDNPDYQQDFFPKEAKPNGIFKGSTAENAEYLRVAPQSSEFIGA

Take `CN1CCC(Oc2ccc(-c3cnc(Nc4ccnc(-c5cnn(CC(F)F)c5)n4)cc3NC3CC(F)(F)C3)nc2)CC1` [Example 139, N^4′-(3,3-Difluorocyclobutyl)-N^6′-(2-(1-(2,2-difluoroethyl)-1H-pyrazol-4-yl)pyrimidin-4-yl)-5-((1-methylpiperidin-4-yl)oxy)-[2,3′-bipyridine]-4′,6′-diamine]: the IC50 in assay [1] (setting [6]) came to 0.3 nM; in assay [2] (setting [7]) it was 0.3 nM; in assay [3] (setting [8]) it was 19.4 nM; in assay [4] (setting [9]), 5 nM; in assay [5] (setting [10]) it was 208 nM.
`C[C@]1(O)CC[C@@H](Nc2cc(Nc3ccnc(-c4cnn(S(=O)(=O)C5CC5)c4)n3)ncc2-c2ccc(N3CCCCC3)cn2)CC1` [Example 54, (1s,4s)-4-((6′-((2-(1-(Cyclopropylsulfonyl)-1H-pyrazol-4-yl)pyrimidin-4-yl)amino)-5-(piperidin-1-yl)-[2,3′-bipyridin]-4′-yl)amino)-1-methylcyclohexan-1-ol]: the IC50 was found to be 11.4 nM in assay [1] (setting [11]); 12.5 nM in assay [1] (setting [6]); 5.1 nM in assay [2] (setting [12]); 9.7 nM in assay [3] (setting [13]); 5.6 nM in assay [3] (setting [8]); 7.3 nM in assay [4] (setting [14]). Also, the IC50 in assay [4] (setting [9]) was 1.4 nM; in assay [5] (setting [15]), 5840 nM; in assay [5] (setting [10]) it was 9.2 nM.
For `CS(=O)(=O)c1ccc(-c2cnc(Nc3ccnc(-c4cnn(S(=O)(=O)C5CC5)c4)n3)cc2N[C@H]2CC[C@@H](CO)CC2)nc1` [Example 158, ((1s,4s)-4-((6′-((2-(1-(Cyclopropylsulfonyl)-1H-pyrazol-4-yl)pyrimidin-4-yl)amino)-5-(methylsulfonyl)-[2,3′-bipyridin]-4′-yl)amino)cyclohexyl)methanol], the IC50 in assay [1] (setting [16]) was found to be 0.3 nM; in assay [2] (setting [17]) it was 0.4 nM; in assay [3] (IC50 del19/C797S, 100 μM ATP) it was 0.4 nM; in assay [4] (IC50 L858R/C797S, 100 μM ATP), 2.4 nM; in assay [5] (IC50 WT, 100 μM ATP), 541 nM.
As for `COc1c(F)ccnc1-c1cnc(Nc2ccnc(-c3cnn(S(=O)(=O)C4CC4)c3)n2)cc1N[C@H]1CC[C@@](C)(O)CC1` [Example 335, (1s,4s)-4-((6′-((2-(1-(Cyclopropylsulfonyl)-1H-pyrazol-4-yl)pyrimidin-4-yl)amino)-4-fluoro-3-methoxy-[2,3′-bipyridin]-4′-yl)amino)-1-methylcyclohexan-1-ol], the IC50 in assay [1] (setting [6]) stood at 5.8 nM; in assay [2] (setting [7]), 2.6 nM; in assay [3] (setting [8]), 1840 nM; in assay [4] (setting [9]), 1780 nM; in assay [5] (setting [10]) it was 248 nM.
With `CC(C)N1CCN(Cc2ccc(-c3cnc(Nc4ccnc(-c5cnn(S(=O)(=O)C6CC6)c5)n4)cc3N[C@H]3CC[C@@](C)(O)CC3)nc2)CC1` [Example 34, (1s,4s)-4-((6′-((2-(1-(Cyclopropylsulfonyl)-1H-pyrazol-4-yl)pyrimidin-4-yl)amino)-5-((4-isopropylpiperazin-1-yl)methyl)-[2,3′-bipyridin]-4′-yl)amino)-1-methylcyclohexan-1-ol], the IC50 came out at 0.6 nM in assay [1] (setting [11]); 0.6 nM in assay [1] (setting [6]); 0.3 nM in assay [2] (setting [12]); 0.1 nM in assay [2] (setting [7]); 0.4 nM in assay [3] (setting [13]); 0.2 nM in assay [3] (setting [8]). In addition, the IC50 stood at 0.2 nM in assay [4] (setting [14]), 0.1 nM in assay [4] (setting [9]), 61.1 nM in assay [5] (setting [15]) and 0.5 nM in assay [5] (setting [10]).
In the case of `CN1CCC(Oc2ccc(-c3cnc(Nc4ccnc(-c5cnn(S(=O)(=O)C6CC6)c5)n4)cc3NC3CCC(F)(F)C3)nc2)CC1` (stereo not shown) [Example 143, N^6′-(2-(1-(Cyclopropylsulfonyl)-1H-pyrazol-4-yl)pyrimidin-4-yl)-N^4′-(3,3-difluorocyclopentyl)-5-((1-methylpiperidin-4-yl)oxy)-[2,3′-bipyridine]-4′,6′-diamine], the IC50 in assay [1] (setting [6]) was found to be 0.1 nM; in assay [2] (setting [7]), 0.2 nM; in assay [3] (setting [8]), 1 nM; in assay [4] (setting [9]), 1.1 nM; in assay [5] (setting [10]), 7.9 nM.
For `CN1CCN(C(=O)c2ccc(-c3cnc(Nc4ccnc(-c5cnn(S(=O)(=O)C6CC6)c5)n4)cc3N[C@H]3CC[C@@H](CO)CC3)nc2)CC1` [Example 202, (6′-((2-(1-(Cyclopropylsulfonyl)-1H-pyrazol-4-yl)pyrimidin-4-yl)amino)-4′-(((1s,4s)-4-(hydroxymethyl)cyclohexyl)amino)-[2,3′-bipyridin]-5-yl)(4-methylpiperazin-1-yl)methanone], the IC50 came out at 0.2 nM in assay [1] (setting [18]); 0.3 nM in assay [1] (setting [16]); 0.1 nM in assay [2] (setting [19]); 0.1 nM in assay [2] (setting [17]); 0.1 nM in assay [3] (setting [20]); 0.2 nM in assay [3] (IC50 del19/C797S, 100 μM ATP). For the same compound, the IC50 in assay [4] (setting [21]) was 0.03 nM; in assay [4] (IC50 L858R/C797S, 100 μM ATP), 0.3 nM; in assay [5] (setting [22]), 0.2 nM; in assay [5] (IC50 WT, 100 μM ATP), 94.2 nM.
For the compound `CN1CCC(F)(COc2cnc(-c3cnc(Nc4ccnc(-c5cnn(S(=O)(=O)C6CC6)c5)n4)cc3N[C@H]3CC[C@@](C)(O)CC3)cn2)CC1` [Example 154, (1s,4s)-4-((2-((2-(1-(Cyclopropylsulfonyl)-1H-pyrazol-4-yl)pyrimidin-4-yl)amino)-5-(5-((4-fluoro-1-methylpiperidin-4-yl)methoxy)pyrazin-2-yl)pyridin-4-yl)amino)-1-methylcyclohexan-1-ol], the IC50 in assay [1] (setting [18]) is 0.2 nM; in assay [2] (setting [19]), 0.1 nM; in assay [3] (setting [20]), 0.3 nM; in assay [4] (setting [21]), 0.2 nM; in assay [5] (setting [22]), 2.7 nM.
`O=S(=O)(C1CC1)n1cc(-c2nccc(Nc3cc(N[C@H]4CC[C@@H](CO)CC4)c(-c4ccc(CC(F)(F)F)cn4)cn3)n2)cn1` [Example 219, ((1s,4s)-4-((6′-((2-(1-(Cyclopropylsulfonyl)-1H-pyrazol-4-yl)pyrimidin-4-yl)amino)-5-(2,2,2-trifluoroethyl)-[2,3′-bipyridin]-4′-yl)amino)cyclohexyl)methanol]: the IC50 in assay [1] (setting [18]) came to 3.2 nM; in assay [1] (setting [16]) it was 1.8 nM; in assay [2] (setting [17]) it was 2.9 nM; in assay [3] (setting [20]), 4.9 nM; in assay [3] (IC50 del19/C797S, 100 μM ATP), 8.7 nM; in assay [4] (setting [21]), 2.9 nM. The IC50 turned out to be 27.4 nM in assay [4] (IC50 L858R/C797S, 100 μM ATP); 12.1 nM in assay [5] (setting [22]); 2670 nM in assay [5] (IC50 WT, 100 μM ATP).
Regarding `C[C@]1(O)CC[C@@H](Nc2cc(Nc3ccnc(-c4cnn(S(=O)(=O)C5CC5)c4)n3)ncc2-c2cc(N3CCC(F)(F)CC3)ccn2)CC1` [Example 102, (1s,4s)-4-((6′-((2-(1-(Cyclopropylsulfonyl)-1H-pyrazol-4-yl)pyrimidin-4-yl)amino)-4-(4,4-difluoropiperidin-1-yl)-[2,3′-bipyridin]-4′-yl)amino)-1-methylcyclohexan-1-ol], the IC50 in assay [1] (setting [6]) worked out at 2.8 nM; in assay [2] (setting [12]), 1 nM; in assay [2] (setting [7]), 0.7 nM; in assay [3] (setting [13]) it was 9.1 nM; in assay [3] (setting [8]) it was 4.6 nM; in assay [4] (setting [14]), 29.9 nM. Further, the IC50 is 8.2 nM in assay [4] (setting [9]), greater than 10000 nM in assay [5] (setting [15]) and 21.3 nM in assay [5] (setting [10]).
Turning to `CC(C)(O)c1ccnc(-c2cnc(Nc3ccnc(-c4cnn(S(=O)(=O)C5CC5)c4)n3)cc2N[C@H]2CC[C@@H](CO)CC2)c1` [Example 111, 2-(6′-((2-(1-(Cyclopropylsulfonyl)-1H-pyrazol-4-yl)pyrimidin-4-yl)amino)-4′-(((1s,4s)-4-(hydroxymethyl)cyclohexyl)amino)-[2,3′-bipyridin]-4-yl)propan-2-ol], the IC50 in assay [1] (setting [11]) is 0.5 nM; in assay [1] (setting [6]), 0.3 nM; in assay [2] (setting [12]), 0.2 nM; in assay [2] (setting [7]) it was 0.2 nM; in assay [3] (setting [13]), 0.7 nM; in assay [3] (setting [8]), 0.2 nM. The IC50 in assay [4] (setting [14]) turned out to be 0.4 nM; in assay [4] (setting [9]), 0.03 nM; in assay [5] (setting [15]), 198 nM; in assay [5] (setting [10]), 0.7 nM.
Take `CC(C)(O)[C@H]1CC[C@@H](Nc2cc(Nc3ccnc(-c4cnn(S(=O)(=O)C5CC5)c4)n3)ncc2-c2cc(C(F)F)ccn2)CC1` [Example 78, 2-((1s,4s)-4-((6′-((2-(1-(Cyclopropylsulfonyl)-1H-pyrazol-4-yl)pyrimidin-4-yl)amino)-4-(difluoromethyl)-[2,3′-bipyridin]-4′-yl)amino)cyclohexyl)propan-2-ol]: the IC50 in assay [1] (setting [11]) amounted to 5.5 nM; in assay [1] (setting [6]) it was 6.8 nM; in assay [2] (setting [12]), 5.4 nM; in assay [3] (setting [13]), 15.8 nM; in assay [3] (setting [8]) it was 8.8 nM; in assay [4] (setting [14]) it was 85.5 nM. Moreover, the IC50 in assay [4] (setting [9]) is 16.6 nM; in assay [5] (setting [15]) it was greater than 10000 nM; in assay [5] (setting [10]), 23.6 nM.
